Each compound was assayed against T1, human PTH1 receptor (Homo sapiens, UniProt Q03431) (assay: In vitro cAMP signal activity in HKRK-B7 cells (LLC-PK1 cells overexpressing the human PTH1 receptor)). Conditions: HKRK-B7 cells; compound at 1×10^−3 M; cAMP produced as percentage of that produced by hPTH(1-34) at 100 nM.
T1 sequence (Q03431 27-593): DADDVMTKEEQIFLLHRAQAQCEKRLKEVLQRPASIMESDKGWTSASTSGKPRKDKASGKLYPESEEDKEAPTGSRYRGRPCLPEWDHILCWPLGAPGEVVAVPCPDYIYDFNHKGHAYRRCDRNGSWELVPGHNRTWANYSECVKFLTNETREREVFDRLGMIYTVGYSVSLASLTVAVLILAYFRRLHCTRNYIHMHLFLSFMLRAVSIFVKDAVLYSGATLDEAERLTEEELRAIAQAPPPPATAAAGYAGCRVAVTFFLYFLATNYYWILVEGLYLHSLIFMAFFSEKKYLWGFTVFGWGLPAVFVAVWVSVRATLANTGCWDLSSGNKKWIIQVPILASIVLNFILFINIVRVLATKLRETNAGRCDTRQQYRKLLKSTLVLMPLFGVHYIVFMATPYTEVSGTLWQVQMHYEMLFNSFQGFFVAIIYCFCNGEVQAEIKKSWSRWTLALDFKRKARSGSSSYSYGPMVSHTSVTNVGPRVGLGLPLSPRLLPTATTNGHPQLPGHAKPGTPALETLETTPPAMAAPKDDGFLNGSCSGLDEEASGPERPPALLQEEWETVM
Format: cell-based

| cAMP production activity (%) | SMILES |
| --- | --- |
| 70% | Cc1cc(C(=O)N2CCN(C(C)(C)C)CC2)ccc1CCS(=O)(=O)N1CCC2(CC1)N=C(c1cccc(C(F)(F)F)c1)NC2=O [Compound 373, 8-{2-[4-(4-tert-butyl-piperazine-1-carbonyl)-2-methyl-phenyl]-ethanesulfonyl}-2-(3-trifluoromethyl-phenyl)-1,3,8-triaza-spiro[4.5]dec-1-en-4-one] |
| 79% | Cc1cc(C(=O)N2CCN(CCCN(C)C)CC2)ccc1CCS(=O)(=O)N1CCC2(CC1)N=C(c1cccc(C(F)(F)F)c1)NC2=O [Compound 374, 8-(2-{4-[4-(3-dimethylamino-propyl)-piperazine-1-carbonyl]-2-methyl-phenyl}-ethanesulfonyl)-2-(3-trifluoromethyl-phenyl)-1,3,8-triaza-spiro[4.5]dec-1-en-4-one] |
| 57% | Cc1cc(C(=O)N2CCN(c3ccc(F)cc3)CC2)ccc1CCS(=O)(=O)N1CCC2(CC1)N=C(c1cccc(C(F)(F)F)c1)NC2=O [Compound 375, 8-(2-{4-[4-(4-fluoro-phenyl)-piperazine-1-carbonyl]-2-methyl-phenyl}-ethanesulfonyl)-2-(3-trifluoromethyl-phenyl)-1,3,8-triaza-spiro[4.5]dec-1-en-4-one] |
| 74% | Cc1cc(C(=O)N2CCN(C(C)C)CC2)ccc1CCS(=O)(=O)N1CCC2(CC1)N=C(c1cccc(C(F)(F)F)c1)NC2=O [Compound 376, 8-{2-[4-(4-isopropyl-piperazine-1-carbonyl)-2-methyl-phenyl]-ethanesulfonyl}-2-(3-trifluoromethyl-phenyl)-1,3,8-triaza-spiro[4.5]dec-1-en-4-one] |
| 64% | Cc1cc(C(=O)N2CC(O)C2)ccc1CCS(=O)(=O)N1CCC2(CC1)N=C(c1cccc(C(F)(F)F)c1)NC2=O [Compound 377, 8-{2-[4-(3-hydroxy-azetidine-1-carbonyl)-2-methyl-phenyl]-ethanesulfonyl}-2-(3-trifluoromethyl-phenyl)-1,3,8-triaza-spiro[4.5]dec-1-en-4-one] |
| 60% | Cc1cc(C(=O)N2CCC(F)C2)ccc1CCS(=O)(=O)N1CCC2(CC1)N=C(c1cccc(C(F)(F)F)c1)NC2=O (stereo not drawn) [Compound 378, 8-{2-[4-(3-fluoro-pyrrolidine-1-carbonyl)-2-methyl-phenyl]-ethanesulfonyl}-2-(3-trifluoromethyl-phenyl)-1,3,8-triaza-spiro[4.5]dec-1-en-4-one] |
| 59% | Cc1cc(C(=O)N2CC(F)C2)ccc1CCS(=O)(=O)N1CCC2(CC1)N=C(c1cccc(C(F)(F)F)c1)NC2=O [Compound 379, 8-{2-[4-(3-fluoro-azetidine-1-carbonyl)-2-methyl-phenyl]-ethanesulfonyl}-2-(3-trifluoromethyl-phenyl)-1,3,8-triaza-spiro[4.5]dec-1-en-4-one] |
| 75% | Cc1cc(C(=O)N2CCCCC2)ccc1CCS(=O)(=O)N1CCC2(CC1)N=C(c1cccc(C(F)(F)F)c1)NC2=O [Compound 380, 8-{2-[2-methyl-4-(piperidine-1-carbonyl)-phenyl]-ethanesulfonyl}-2-(3-trifluoromethyl-phenyl)-1,3,8-triaza-spiro[4.5]dec-1-en-4-one] |
| 72% | Cc1cc(C(=O)N2CCC2)ccc1CCS(=O)(=O)N1CCC2(CC1)N=C(c1cccc(C(F)(F)F)c1)NC2=O [Compound 381, 8-{2-[4-(azetidine-1-carbonyl)-2-methyl-phenyl]-ethanesulfonyl}-2-(3-trifluoromethyl-phenyl)-1,3,8-triaza-spiro[4.5]dec-1-en-4-one] |

More lines, now with the values behind:

| SMILES | cAMP production activity (%) |
| --- | --- |
| Cc1cc(C(=O)N2CCN(c3nccs3)CC2)ccc1CCS(=O)(=O)N1CCC2(CC1)N=C(c1cccc(C(F)(F)F)c1)NC2=O [Compound 364, 8-{2-[2-methyl-4-(4-thiazol-2-yl-piperazine-1-carbonyl)-phenyl]-ethanesulfonyl}-2-(3-trifluoromethyl-phenyl)-1,3,8-triaza-spiro[4.5]dec-1-en-4-one] | 78% |
| Cc1cc(C(=O)N2CCC(F)(F)CC2)ccc1CCS(=O)(=O)N1CCC2(CC1)N=C(c1cccc(C(F)(F)F)c1)NC2=O [Compound 365, 8-{2-[4-(4,4-difluoro-piperidine-1-carbonyl)-2-methyl-phenyl]-ethanesulfonyl}-2-(3-trifluoromethyl-phenyl)-1,3,8-triaza-spiro[4.5]dec-1-en-4-one] | 81% |
| Cc1cc(C(=O)N2CCN(CCCO)CC2)ccc1CCS(=O)(=O)N1CCC2(CC1)N=C(c1cccc(C(F)(F)F)c1)NC2=O [Compound 366, 8-(2-{4-[4-(3-hydroxy-propyl)-piperazine-1-carbonyl]-2-methyl-phenyl}-ethanesulfonyl)-2-(3-trifluoromethyl-phenyl)-1,3,8-triaza-spiro[4.5]dec-1-en-4-one] | 85% |
| Cc1cc(C(=O)N2CCC[C@H]2C(N)=O)ccc1CCS(=O)(=O)N1CCC2(CC1)N=C(c1cccc(C(F)(F)F)c1)NC2=O [Compound 367, (S)-1-(3-methyl-4-{2-[4-oxo-2-(3-trifluoromethyl-phenyl)-1,3,8-triaza-spiro[4.5]dec-1-ene-8-sulfonyl]-ethyl}-benzoyl)-pyrrolidine-2-carboxylic acid amide] | 50% |
| Cc1cc(C(=O)N2CC(F)(F)C(F)(F)C2)ccc1CCS(=O)(=O)N1CCC2(CC1)N=C(c1cccc(C(F)(F)F)c1)NC2=O [Compound 368, 8-{2-[2-methyl-4-(3,3,4,4-tetrafluoro-pyrrolidine-1-carbonyl)-phenyl]-ethanesulfonyl}-2-(3-trifluoromethyl-phenyl)-1,3,8-triaza-spiro[4.5]dec-1-en-4-one] | 38% |
| Cc1cc(C(=O)N2CCC[C@@H]2C(N)=O)ccc1CCS(=O)(=O)N1CCC2(CC1)N=C(c1cccc(C(F)(F)F)c1)NC2=O [Compound 369, (R)-1-(3-methyl-4-{2-[4-oxo-2-(3-trifluoromethyl-phenyl)-1,3,8-triaza-spiro[4.5]dec-1-ene-8-sulfonyl]-ethyl}-benzoyl)-pyrrolidine-2-carboxylic acid amide] | 43% |
| Cc1cc(C(=O)N2CC[C@H](O)C2)ccc1CCS(=O)(=O)N1CCC2(CC1)N=C(c1cccc(C(F)(F)F)c1)NC2=O [Compound 370, 8-{2-[4-((S)-3-hydroxy-pyrrolidine-1-carbonyl)-2-methyl-phenyl]-ethanesulfonyl}-2-(3-trifluoromethyl-phenyl)-1,3,8-triaza-spiro[4.5]dec-1-en-4-one] | 66% |
| Cc1cc(C(=O)N2CCC[C@@H]2CO)ccc1CCS(=O)(=O)N1CCC2(CC1)N=C(c1cccc(C(F)(F)F)c1)NC2=O [Compound 371, 8-{2-[4-((R)-2-hydroxymethyl-pyrrolidine-1-carbonyl)-2-methyl-phenyl]-ethanesulfonyl}-2-(3-trifluoromethyl-phenyl)-1,3,8-triaza-spiro[4.5]dec-1-en-4-one] | 72% |
| Cc1cc(C(=O)N2CC[C@H](N(C)C)C2)ccc1CCS(=O)(=O)N1CCC2(CC1)N=C(c1cccc(C(F)(F)F)c1)NC2=O [Compound 372, 8-{2-[4-((S)-3-dimethylamino-pyrrolidine-1-carbonyl)-2-methyl-phenyl]-ethanesulfonyl}-2-(3-trifluoromethyl-phenyl)-1,3,8-triaza-spiro[4.5]dec-1-en-4-one] | 51% |
